# Measured values taken from patent publication US7858665B2, “Drugs for chronic pain” (Nicox S.A., priority 2002, dated 2010).
# Columns and labels:
# washed human platelets = assay: NO generation by NO-donors in platelets (chemiluminescence); type: cell-based; settings: incubation of 100 μM, 5 minutes
# Experimental: Washed human platelets have been used, obtained as described by Radomski et al., (Br. J. Pharmacol. 92, 639-1987). Amounts of 0.4 ml were incubated 5 minutes with scalar NO-donor concentrations (1-100 μg/ml). […] As to the chemiluminescence assay, also in this case on the basis of a calibration curve plotted with nitrite scalar concentrations, it has been possible to quantitatively define the concentration of the generated NO. For example, after incubation of 100 μM nicorandil, an amount of 35 μM of NO was generated.
# [1] = tested on: human umbilical vein cells; assay: NO generation by NO-donors in endothelial cells (chemiluminescence); type: cell-based; settings: incubation of 100 μl nicorandil, 5 minutes
# Experimental: Plated human umbilical vein cells with density of 10^3 cells/well, have been incubated 5 minutes with NO-donor scalar concentrations (1-100 μg/ml). Incubation medium (physiological solvent, i.e. Tyrode) has been then analysed to ascertain the ability to generate NO by means of: 1) nitric oxide detection by chemiluminescence, As far as chemiluminescence analysis is concerned, a 100 μl aliquot has been injected into reaction chamber of an chemiluminescence analyzer containing glacial acetic acid and potassium iodide. […] As usual in devices measuring chemiluminescence, the produced luminescence is directly proportional to the generated NO levels and can be measured by means of the suitable photomultiplier unity of an chemiluminescence analyzer. The photomultiplier turns incident light into electric voltage, that then is quantitatively registered. Referring to a calibration curve, obtained with scalar nitrite concentrations, it has been possible to quantitatively evaluate the concentration of the generated NO. For example, from incubation of […], an amount of about 10 μM NO was generated.
# male Swiss mice [2] = assay: Paw licking test (formalin injected in paw); type: in vivo; settings: for paw licking Phase I: phase I 0-15 minutes after formalin; for paw licking Phase I / paw licking Phase II: 3 mg/kg oral (gabapentin 17.5 μm/kg, NO-gabapentin 8.5 μm/kg), 1 h before formalin; for paw licking Phase II: phase II 15-30 minutes after formalin
# Experimental: Three groups of male Swiss mice (20-25 g, Charles River), 10 animals each, received by oral administration as in Example F1 gabapentin in an amount of 3 mg/kg (17.5 μm/kg) or the compound of formula (XVA, Example 1), hereinafter NO-gabapentin, in an amount of 3 mg/kg (8.5 μm/kg) dissolved in saline solution. The control group received an equal volume of saline solution. One hour after administration of the compound solutions, the mice were injected with formalin in the paw (10 μl).
# The formalin injection induced a biphasic reaction. In first phase (phase I, 0-15 minutes) an acute inflammation was observed; in the second phase (phase II, 15-30 minutes) a release of chemical mediators occurred as in neurophatic pain. Within 30 minutes subsequent to formalin injection, in each animal the time in seconds in which the animal licked its paw was recorded. Analysis was carried out in blind.
# The results reported in Table 2 are expressed as the entire time in seconds in which paw licking in animals during the first and second phase as defined above was observed.
# male Swiss mice [3] = assay: Writhing test (acetic acid-induced abdominal contractions); type: in vivo; settings: for Contractions number: 1 h before i.p. acetic acid, total contractions within 15 minutes
# Experimental: Nine groups of male Swiss mice (20-25 g, Charles River), 10 animals each, received by oral administration through gastric tube (gavage) gabapentin in an amount of from 1 to 10 mg/kg or the compound of the invention (XVA, Example 1), hereinafter NO-gabapentin, in an amount of from 1 to 10 mg/kg dissolved in saline solution. One hour after administration of the compound solutions, through intraperitoneal injection the mice received a glacial acetic acid solution (0.5 ml, 0.6%). Within 15 minutes subsequent to the administration of acetic acid, in every animal the number of abdominal contractions was counted. Analysis was carried out in blind.
# The results reported in Table 1 are given as the number of total contractions within the observation time (15 minutes).
# [4] = tested on: chronic constriction injury of the rat sciatic nerve; assay: Neuropathic pain model: chronic constriction injury of the rat sciatic nerve, vocalization threshold to paw pressure; type: in vivo; settings: for Vocalization threshold to pressure in the injured paw (VTPP): 175 μmoles/kg, ip, day 14 post lesion
# From the text: We have tested the antinoceptive effects of compound of formula (XVA, Example 1), hereinafter NO-gabapentin, in the model of neuropathic pain constituted by the chronic constriction injury of the rat sciatic nerve. The parent compound gabapentin has been used as reference drug.
# The unilateral peripheal mononeuropathy was obtained according to the method described by Bennet G J and Xie Y K, Pain (33) 1988: 87-107. Sample populations ranging from 8 to 12 rats (SD males weighting 250-300 g) for condition were used. The antinoceptive effect of the drugs was determined by measuring the vocalization threshold (VTPP) elicited by paw pressure both at the injured and at the controlateral side. The test was performed at day 14 post lesion. All compounds were tested for acute antinoceptive effects. Acute effects were determined within 60 min following a single intraperitoneal (i.p.) injection of the drugs prior to the test.
# Each group of the rats received gabapentin at the dose of 30 mg/kg (175 μmoles/kg), or an equimolar dose of NO-gabapentin (175 μmoles/kg), or the same volume of vehicle (Control group). The drugs were dissolved (20 mg/mL) in vehicle containing saline: DMSO: Castor oil (68:8:24).
SMILES,amount of NO generated (washed human platelets) [µM],amount of NO generated [1],paw licking Phase I (male Swiss mice [2]) [s],"activity in inhibiting paw licking in first phase, compared with gabapentin (male Swiss mice [2]; phase I, molar dose corresponding to 50% of gabapentin)",paw licking Phase II (male Swiss mice [2]) [s],"effectiveness in second phase, compared with gabapentin (male Swiss mice [2]; phase II, molar dose corresponding to 50% of gabapentin)","activity in inhibiting abdominal contraction amount, compared with gabapentin (male Swiss mice [3]; 1 to 10 mg/kg oral)",Contractions number (male Swiss mice [3]; dose 1 mg/kg oral),Contractions number (male Swiss mice [3]; dose 3 mg/kg oral),Contractions number (male Swiss mice [3]; dose 10 mg/kg oral),Vocalization threshold to pressure in the injured paw (VTPP) ([4]; 0 min post-dosing) [grams],Vocalization threshold to pressure in the injured paw (VTPP) ([4]; 5 min post-dosing) [grams],Vocalization threshold to pressure in the injured paw (VTPP) ([4]; 10 min post-dosing) [grams],Vocalization threshold to pressure in the injured paw (VTPP) ([4]; 20 min post-dosing) [grams],Vocalization threshold to pressure in the injured paw (VTPP) ([4]; 40 min post-dosing) [grams],Vocalization threshold to pressure in the injured paw (VTPP) ([4]; 60 min post-dosing) [grams],antinoceptive efficacy compared with gabapentin ([4]; equimolar dose 175 μmoles/kg i.p.)
O=C(NCCO[N+](=O)[O-])c1cccnc1 [nicorandil],35,about 10 μM,,,,,,,,,,,,,,,
"O=C(O)CC1(CNC(=O)c2ccc(CO[N+](=O)[O-])cc2)CCCCC1 [NO-gabapentin, 1-[4-(nitrooxymethyl)benzoylaminomethyl]-cyclohexaneacetic acid]",,,50,more active than the starting drug,60,less effective,more active than precursor drug,24,15,15,153 ± 10,187 ± 10,307 ± 14,325 ± 08,390 ± 11,382 ± 09,more efficacious than gabapentin
"NCC1(CC(=O)O)CCCCC1 [Gabapentin, 1-(aminomethyl)cyclohexaneacetic acid, reference compound]",,,85,,30,,,32,22,27,160 ± 10,165 ± 23,191 ± 29,250 ± 24,266 ± 26,250 ± 38,
